Measured values taken from patent US7166296B2, “Pharmaceutical formulations and ligands for use therein; mimetics for UEA-1” (Sarlan, Ltd., priority 2001, dated 2007).
Converted amounts (≈) assume the structure as drawn. Non-standard residues stand in square brackets, D forms with d. Residues, ends and D or L forms follow the SMILES beside them. *: point of attachment. Galloyl = O=C(c1cc(O)c(O)c(O)c1)*; Orn = NCCC[CH](N)C(=O)O; Dab = NCC[CH](N)C(=O)O; Dap = NC[C@H](N)C(=O)O

Columns and labels:
[1] = tested on: UEA-1 binding sites on Caco-2 cell membrane preparations; test: Single tier competition assay: inhibition of biotinylated UEA-1 binding, compound and biotinylated UEA-1 incubated together; parameters: species or system human; conditions: for IC 50 (ug/ml) 1st tier / IC50: Table 8, galloyl constructs; for IC50: read-out: IC 50 (uM) 1st tier (converted); for Avg % Inhibtion: Single Tier Assay, library MSI 26
Method in brief: (§1)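 Plates coated with Caco-2 membrane preparation (10 μg/ml, carbonate buffer pH 9.6) and BSA-blocked. Single tier: compound and biotinylated UEA-1 incubated together overnight. Two tier: compound incubated overnight with membranes first, biotinylated UEA-1 added next. Bound UEA-1 detected by streptavidin-HRP/OPD, OD490.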

[2] = tested on: UEA-1 binding sites on Caco-2 cell membrane preparations; test: Two tier competition assay: compound incubated alone with membranes, biotinylated UEA-1 added in next step; parameters: species or system human; conditions: for IC 50 (ug/ml) 2nd tier / IC50: Table 8, galloyl constructs; for IC50: read-out: IC 50 (uM) 2nd tier; for Avg % Inhibition: Two Tier Assay, library MSI 26
Method in brief: as §1

Row | Compound | IC 50 (ug/ml) 1st tier [1] | IC50 [1] | IC 50 (ug/ml) 2nd tier [2] | IC50 [2] | Avg % Inhibtion ([1]; 62.5 μg/ml) | Avg % Inhibtion ([1]; 250 μg/ml) | Avg % Inhibition ([2]; 62.5 μg/ml) | Avg % Inhibition ([2]; 250 μg/ml)
1 | NC(=O)C(CCNC(=O)C(CCNC(=O)c1cc(O)c(O)c(O)c1)NC(=O)c1cc(O)c(O)c(O)c1)NC(=O)C(CCNC(=O)c1cc(O)c(O)c(O)c1)NC(=O)c1cc(O)c(O)c(O)c1 (stereo not drawn) [MSI 34 #6] | 0.6 µg/mL (≈ 0.648 µM) | 0.6 µM | 1 µg/mL (≈ 1.08 µM) | 1 µM | – | – | – | –
2 | NC(=O)C(CCCNC(=O)C(CCCNC(=O)c1cc(O)c(O)c(O)c1)NC(=O)c1cc(O)c(O)c(O)c1)NC(=O)C(CCCNC(=O)c1cc(O)c(O)c(O)c1)NC(=O)c1cc(O)c(O)c(O)c1 (stereo not drawn) [MSI 34 #7] | 0.9 µg/mL (≈ 0.93 µM) | 0.9 µM | 1 µg/mL (≈ 1.03 µM) | 1 µM | – | – | – | –
3 | NC(=O)C(Cc1ccc(NC(=O)C(Cc2ccc(NC(=O)c3cc(O)c(O)c(O)c3)cc2)NC(=O)c2cc(O)c(O)c(O)c2)cc1)NC(=O)C(Cc1ccc(NC(=O)c2cc(O)c(O)c(O)c2)cc1)NC(=O)c1cc(O)c(O)c(O)c1 (stereo not drawn) [MSI 34 #8] | 4 µg/mL (≈ 3.6 µM) | 4 µM | 3 µg/mL (≈ 2.7 µM) | 2 µM | – | – | – | –
4 | NC(=O)C(Cc1ccc(NC(=O)c2cc(O)c(O)c(O)c2)cc1)NC(=O)C(Cc1ccc(NC(=O)c2cc(O)c(O)c(O)c2)cc1)NC(=O)c1cc(O)c(O)c(O)c1 (stereo not drawn) [MSI 34 #12] | 6 µg/mL (≈ 7.52 µM) | 8 µM | 4 µg/mL (≈ 5.01 µM) | 5 µM | – | – | – | –
5 | CC(=O)NC(CCNC(=O)c1cc(O)c(O)c(O)c1)C(=O)NC(CCNC(=O)c1cc(O)c(O)c(O)c1)C(=O)NC(CCNC(=O)c1cc(O)c(O)c(O)c1)C(N)=O (stereo not drawn) [MSI 34 #14] | 2 µg/mL (≈ 2.45 µM) | 2 µM | 1 µg/mL (≈ 1.23 µM) | 1 µM | – | – | – | –
6 | CC(=O)NC(CCCNC(=O)c1cc(O)c(O)c(O)c1)C(=O)NC(CCCNC(=O)c1cc(O)c(O)c(O)c1)C(=O)NC(CCCNC(=O)c1cc(O)c(O)c(O)c1)C(N)=O (stereo not drawn) [MSI 34 #15] | 8 µg/mL (≈ 9.33 µM) | 9 µM | 2 µg/mL (≈ 2.33 µM) | 2 µM | – | – | – | –
7 | CC(=O)NC(Cc1ccc(NC(=O)c2cc(O)c(O)c(O)c2)cc1)C(=O)NC(Cc1ccc(NC(=O)c2cc(O)c(O)c(O)c2)cc1)C(=O)NC(Cc1ccc(NC(=O)c2cc(O)c(O)c(O)c2)cc1)C(N)=O (stereo not drawn) [MSI 34 #16] | 3 µg/mL (≈ 2.99 µM) | 3 µM | 6 µg/mL (≈ 5.99 µM) | 6 µM | – | – | – | –
8 | NC(=O)C(CCNC(=O)c1cc(O)c(O)c(O)c1)NC(=O)C(CCNC(=O)c1cc(O)c(O)c(O)c1)NC(=O)C(CCNC(=O)c1cc(O)c(O)c(O)c1)NC(=O)c1cc(O)c(O)c(O)c1 (stereo not drawn) [MSI 34 #18] | 3 µg/mL (≈ 3.24 µM) | 3 µM | 0.9 µg/mL (≈ 0.972 µM) | 1 µM | – | – | – | –
9 | NC(=O)C(CCCNC(=O)c1cc(O)c(O)c(O)c1)NC(=O)C(CCCNC(=O)c1cc(O)c(O)c(O)c1)NC(=O)C(CCCNC(=O)c1cc(O)c(O)c(O)c1)NC(=O)c1cc(O)c(O)c(O)c1 (stereo not drawn) [MSI 34 #19] | 11 µg/mL (≈ 11.4 µM) | 11 µM | 1 µg/mL (≈ 1.03 µM) | 1 µM | – | – | – | –
10 | NC(=O)C(Cc1ccc(NC(=O)c2cc(O)c(O)c(O)c2)cc1)NC(=O)C(Cc1ccc(NC(=O)c2cc(O)c(O)c(O)c2)cc1)NC(=O)C(Cc1ccc(NC(=O)c2cc(O)c(O)c(O)c2)cc1)NC(=O)c1cc(O)c(O)c(O)c1 (stereo not drawn) [MSI 34 #20] | 2 µg/mL (≈ 1.8 µM) | 2 µM | 6 µg/mL (≈ 5.4 µM) | 5 µM | – | – | – | –
11 | CC(=O)N[C@@H](CNC(=O)c1cc(O)c(O)c(O)c1)C(=O)N[C@@H](CNC(=O)c1cc(O)c(O)c(O)c1)C(=O)N[C@@H](CNC(=O)c1cc(O)c(O)c(O)c1)C(=O)N[C@@H](CNC(=O)c1cc(O)c(O)c(O)c1)C(N)=O [MSI 34 #21] (Ac-[Dap](Galloyl)[Dap](Galloyl)[Dap](Galloyl)[Dap](Galloyl)-NH2) | 2 µg/mL (≈ 1.98 µM) | 2 µM | 1 µg/mL (≈ 0.988 µM) | 1 µM | – | – | – | –
12 | CC(=O)NC(CCNC(=O)c1cc(O)c(O)c(O)c1)C(=O)NC(CCNC(=O)c1cc(O)c(O)c(O)c1)C(=O)NC(CCNC(=O)c1cc(O)c(O)c(O)c1)C(=O)NC(CCNC(=O)c1cc(O)c(O)c(O)c1)C(N)=O (stereo not drawn) [MSI 34 #22] (Ac-[Dab](Galloyl)[Dab](Galloyl)[Dab](Galloyl)[Dab](Galloyl)-NH2; configuration not given here) | 3 µg/mL (≈ 2.81 µM) | 3 µM | 1 µg/mL (≈ 0.936 µM) | 1 µM | – | – | – | –
13 | CC(=O)NC(CCCNC(=O)c1cc(O)c(O)c(O)c1)C(=O)NC(CCCNC(=O)c1cc(O)c(O)c(O)c1)C(=O)NC(CCCNC(=O)c1cc(O)c(O)c(O)c1)C(=O)NC(CCCNC(=O)c1cc(O)c(O)c(O)c1)C(N)=O (stereo not drawn) [MSI 34 #23] (Ac-[Orn](Galloyl)[Orn](Galloyl)[Orn](Galloyl)[Orn](Galloyl)-NH2; configuration not given here) | 6 µg/mL (≈ 5.34 µM) | 5 µM | 1 µg/mL (≈ 0.89 µM) | 1 µM | – | – | – | –
14 | NC(=O)C(CNC(=O)C(CNC(=O)c1cc(O)c(O)c(O)c1)NC(=O)c1cc(O)c(O)c(O)c1)NC(=O)CCCCCNC(=O)C(CNC(=O)c1cc(O)c(O)c(O)c1)NC(=O)c1cc(O)c(O)c(O)c1 (stereo not drawn) [MSI 39 #4] | 6 µg/mL (≈ 6.02 µM) | 5 µM | 0.8 µg/mL (≈ 0.802 µM) | 0.7 µM | – | – | – | –
15 | CC(=O)N[C@H](CCCCNC(=O)c1cc(O)c(O)c(O)c1)C(=O)N[C@H](CCCCNC(=O)c1cc(O)c(O)c(O)c1)C(=O)N[C@H](CCCCNC(=O)c1cc(O)c(O)c(O)c1)C(=O)N[C@H](CCCCNC(=O)c1cc(O)c(O)c(O)c1)C(N)=O [MSI 39 #12] (Ac-[dK](Galloyl)[dK](Galloyl)[dK](Galloyl)[dK](Galloyl)-NH2) | 8 µg/mL (≈ 6.78 µM) | 7 µM | 3 µg/mL (≈ 2.54 µM) | 2 µM | – | – | – | –
16 | COC(=O)c1cc(O)c(O)c(O)c1 [Methyl 3,5,4-trihydroxybenzoate, reference compound] | – | – | – | – | 1% | 4.5% | −11% | −8%

Now from value to compound, other results behind:

Row | IC 50 (ug/ml) 1st tier [1] | IC50 [1] | IC 50 (ug/ml) 2nd tier [2] | IC50 [2] | Compound | Avg % Inhibtion ([1]; 62.5 μg/ml) | Avg % Inhibtion ([1]; 250 μg/ml) | Avg % Inhibition ([2]; 62.5 μg/ml) | Avg % Inhibition ([2]; 250 μg/ml)
17 | 0.5 µg/mL (≈ 0.566 µM) | 0.5 µM | 1 µg/mL (≈ 1.13 µM) | 1 µM | NC(=O)C(CNC(=O)C(CNC(=O)c1cc(O)c(O)c(O)c1)NC(=O)c1cc(O)c(O)c(O)c1)NC(=O)C(CNC(=O)c1cc(O)c(O)c(O)c1)NC(=O)c1cc(O)c(O)c(O)c1 (stereo not drawn) [MSI 34 1π5] | – | – | – | –
18 | 1 µg/mL (≈ 2.45 µM) | 4 µM | 0.8 µg/mL (≈ 1.96 µM) | 2 µM | NC(=O)[C@H](CNC(=O)c1cc(O)c(O)c(O)c1)NC(=O)c1cc(O)c(O)c(O)c1 [MSI 34 #1] | – | – | – | –
19 | 2 µg/mL (≈ 4.59 µM) | 4 µM | 0.7 µg/mL (≈ 1.61 µM) | 2 µM | NC(=O)C(CCCNC(=O)c1cc(O)c(O)c(O)c1)NC(=O)c1cc(O)c(O)c(O)c1 (stereo not drawn) [MSI 34 #3] | – | – | – | –
20 | 0.6 µg/mL (≈ 0.929 µM) | 0.9 µM | 0.5 µg/mL (≈ 0.775 µM) | 0.8 µM | NC(=O)C(CNC(=O)c1cc(O)c(O)c(O)c1)NC(=O)C(CNC(=O)c1cc(O)c(O)c(O)c1)NC(=O)c1cc(O)c(O)c(O)c1 (stereo not drawn) [MSI 34 #9] | – | – | – | –
21 | 0.6 µg/mL (≈ 0.891 µM) | 0.9 µM | 0.7 µg/mL (≈ 1.04 µM) | 1 µM | NC(=O)C(CCNC(=O)c1cc(O)c(O)c(O)c1)NC(=O)C(CCNC(=O)c1cc(O)c(O)c(O)c1)NC(=O)c1cc(O)c(O)c(O)c1 (stereo not drawn) [MSI 34 #10] | – | – | – | –
22 | 1 µg/mL (≈ 1.43 µM) | 2 µM | 0.8 µg/mL (≈ 1.14 µM) | 1 µM | NC(=O)C(CCCNC(=O)c1cc(O)c(O)c(O)c1)NC(=O)C(CCCNC(=O)c1cc(O)c(O)c(O)c1)NC(=O)c1cc(O)c(O)c(O)c1 (stereo not drawn) [MSI 34 #11] | – | – | – | –
23 | 1st tier = 22nd tier = 2 ug/ml | 3 µM | 1st tier = 22nd tier = 2 ug/ml | 2 µM | CC(=O)NC(CNC(=O)c1cc(O)c(O)c(O)c1)C(=O)NC(CNC(=O)c1cc(O)c(O)c(O)c1)C(=O)NC(CNC(=O)c1cc(O)c(O)c(O)c1)C(N)=O (stereo not drawn) [MSI 34 #13] | – | – | – | –
24 | 1 µg/mL (≈ 1.13 µM) | 1 µM | 0.7 µg/mL (≈ 0.792 µM) | 0.8 µM | NC(=O)C(CNC(=O)c1cc(O)c(O)c(O)c1)NC(=O)C(CNC(=O)c1cc(O)c(O)c(O)c1)NC(=O)C(CNC(=O)c1cc(O)c(O)c(O)c1)NC(=O)c1cc(O)c(O)c(O)c1 (stereo not drawn) [MSI 34 #17] | – | – | – | –
